Measured values as given in patent publication US6552061B1, “Amino acid derivatives and anti-inflammatory agents” (Ajinomoto Co., Inc., priority 1998, dated 2003).

What was measured:
Type in all cases: cell-based
NF-κB = test: Test for an Activity of Inhibiting NF-κB Activation (gel shift assay, UVB-irradiated human epidermal cells); settings: light or radiation study, read-out: inhibitory rate (%) of NF-κB activation; for inhibition at 10 µM: concentration 10 μM; for inhibition at 100 µM: concentration 100 μM; for inhibition at 1000 µM: concentration 1 mM; for inhibition at 2000 µM: concentration 2 mM; for inhibition at 50 µM: concentration 50 μM
Method: Test for an Activity of Inhibiting NF-κB Activation
(§1) Eighteen hours later, the culture solution was replaced with a phenol red-free medium. The cells were subjected to UV irradiation (UVB: 50 mJ/m^2)using Dermaray M-DMR-80 (supplied by Toshiba Iryo Yohin KK). After from 4 to 5 hours passed, the cells were recovered, and the nucleoproteins were extracted in a usual manner. With respect to the resulting nucleoproteins, NF-κB activated by gel shift assay was detected. The amount of NF-κB was determined by measuring a radioactivity of an NF-κB band using a bio-imaging analyzer BAS 2000 (supplied by Fuji Photo Film). The rate of inhibition of NF-κB activation on the test compound was calculated using formula (III).
Rate (%) of inhibition of NF-κB activation={1−(A1−A3)/(A2−A3)}×100 (III)
A1: radioactivity of an NF-κB band in the addition of the test compound
A2: radioactivity of an NF-κB band in the non-addition of the test compound
A3: radioactivity of an NF-κB band when the test compound was not added, nor was UV irradiation conducted

collagenase = test: Test for an Activity of Inhibiting Collagenase Expression (MMP-1 ELISA, UVA-irradiated human dermal fibroblasts); settings: Fibroblast, light or radiation study, 24 h, read-out: inhibitory rate (%) of collagenase expression; for inhibition at 1 µM: concentration 1 μM; for inhibition at 10 µM: concentration 10 μM; for inhibition at 100 µM: concentration 0.1 mM; for inhibition at 1000 µM: concentration 1 mM; for inhibition at 500 µM: concentration 0.5 mM
Method: Test for an Activity of Inhibiting Collagenase Expression
(§2) The test compound was added to human dermal fibroblasts which had become confluent in a culture plate. Eighteen hours later, the culture solution was replaced with a phenol red-free medium. The cells were subjected to UV irradiation (UVA; 20 J/cm^2) using Dermaray M-DMR-80 (supplied by Toshiba Iryo Yohin KK). After 24 hours passed, the culture solution was recovered, and the collagenase concentration in the culture solution was measured using MMP-1α·ELISA System (supplied by Amersham Corp.). The rate of inhibition of collagenase expression on the test compound was calculated using formula (VI).
Rate (%) of inhibition of collagenase expression={1−(B4−B6)/(B5−B6)}×100 (VI)
B4: collagenase concentration in the addition of the test compound
B5: collagenase concentration in the non-addition of the test compound
B6: collagenase concentration when the test compound was not added, nor was UV irradiation conducted

IL-1α = test: Test for an Activity of Inhibiting IL-1α Expression (ELISA, UVB-irradiated human epidermal cells); settings: light or radiation study, 24 h, read-out: inhibitory rate (%) of IL-1α expression; for inhibition at 10 µM: concentration 10 μM; for inhibition at 50 µM: concentration 50 μM; for inhibition at 100 µM: concentration 100 μM
Method: Test for an Activity of Inhibiting IL-1α Expression
as §2, with “epidermal cells” for “dermal fibroblasts”, “(UVB: 50 mJ/cm^2)” for “(UVA; 20 J/cm^2)”, “IL-1α” for “collagenase”, “IL-1α·ELISA” for “MMP-1α·ELISA”, “(V).” for “(VI).”
Rate (%) of inhibition of IL-1α expression={1−(B1−B3)/(B2−B3)}×100 (V)
B1: IL-1α concentration in the addition of the test compound
B2: IL-1α concentration in the non-addition of the test compound
B3: IL-1α concentration when the test compound was not added, nor was UV irradiation conducted

AP-1 = test: Test for an Activity of Inhibiting AP-1 Activation (gel shift assay, UVA-irradiated human dermal fibroblasts); settings: AP1, light or radiation study, read-out: inhibitory rate (%) of AP-1 activation; for inhibition at 10 µM: concentration 10 μM; for inhibition at 20 µM: concentration 20 μM; for inhibition at 1 µM: concentration 1 μM; for inhibition at 5 µM: concentration 5 μM; for inhibition at 500 µM: concentration 0.5 mM; for inhibition at 1000 µM: concentration 1 mM
Method: Test for an Activity of Inhibiting AP-1 Activation
as §1, with “The test compound was added to human dermal fibroblasts which had become confluent in a culture plate. Eighteen” for “Eighteen”, “(UVA: 20 J/cm^2) using” for “(UVB: 50 mJ/m^2)using”, “AP-1” for “NF-κB”, “(IV).” for “(III).”
Rate (%) of inhibition of AP-1 activation={1−(A4−A6)/(A5−A6)}×100 (IV)
A4: radioactivity of an AP-1 band in the addition of the test compound
A5: radioactivity of an AP-1 band in the non-addition of the test compound
A6: radioactivity of an AP-1 band when the test compound was not added, nor was UV irradiation conducted

CCCCCCCCCCCCNC(=O)[C@H](C)NCc1ccccc1O [N-(2-hydroxybenzyl)-L-alanine lauryl amide]
inhibition at 10 µM (NF-κB): 53%
inhibition at 20 µM (NF-κB; concentration 20 μM): 65%
inhibition at 1 µM (collagenase): 57%
inhibition at 10 µM (IL-1α): 69%
inhibition at 50 µM (IL-1α): 73%
inhibition at 10 µM (AP-1): 57%
inhibition at 20 µM (AP-1): 56%

CCCCCCCCCCCCOC(=O)[C@H](C)NCc1ccccc1O [N-(2-hydroxybenzyl)-L-alanine lauryl ester]
inhibition at 10 µM (NF-κB): 20%
inhibition at 100 µM (NF-κB): 81%
inhibition at 10 µM (collagenase): 58%
inhibition at 10 µM (IL-1α): 23%
inhibition at 100 µM (IL-1α): 72%
inhibition at 10000 µM (AP-1; concentration 10 mM): 68%

CCCCCCCCCCCCCCCCCCNC(=O)[C@H](C)NCc1ccccc1O [N-(2-hydroxybenzyl)-L-alanine stearyl amide]
inhibition at 1 µM (collagenase): 72%
inhibition at 5 µM (IL-1α; concentration 5 μM): 30%
inhibition at 10 µM (IL-1α): 77%
inhibition at 1 µM (AP-1): 72%
inhibition at 5 µM (AP-1): 47%

CCCCCCCCCCCCCCCCCCOC(=O)[C@H](C)NCc1ccccc1O [N-(2-hydroxybenzyl)-L-alanine stearyl ester]
inhibition at 10 µM (NF-κB): 31%
inhibition at 1 µM (collagenase): 57%
inhibition at 1 µM (IL-1α; concentration 1 μM): 25%
inhibition at 10 µM (IL-1α): 25%
inhibition at 1 µM (AP-1): 20%
inhibition at 5 µM (AP-1): 48%

CCCCCCCCCCCCOC(=O)[C@H](CCC(=O)O)NCc1ccccc1O [N-(2-hydroxybenzyl)-L-glutamic acid lauryl ester]
inhibition at 100 µM (NF-κB): 45%
inhibition at 1 µM (collagenase): 53%
inhibition at 10 µM (collagenase): 49%
inhibition at 10 µM (IL-1α): 54%
inhibition at 10 µM (AP-1): 33%

CCOC(=O)[C@H](Cc1c[nH]cn1)NCc1ccccc1O [N-(2-hydroxybenzyl)-L-histidine ethyl ester]
inhibition at 1000 µM (NF-κB): 69%
inhibition at 2000 µM (NF-κB): 72%
inhibition at 100 µM (collagenase): 44%
inhibition at 1000 µM (collagenase): 51%
inhibition at 500 µM (AP-1): 20%
inhibition at 1000 µM (AP-1): 38%

CCCCCCCCCCCCNC(=O)[C@H](CC(C)C)NCc1ccccc1O [N-(2-hydroxybenzyl)-L-leucine lauryl amide]
inhibition at 10 µM (NF-κB): 40%
inhibition at 50 µM (NF-κB): 89%
inhibition at 1 µM (collagenase): 37%
inhibition at 10 µM (collagenase): 60%
inhibition at 20 µM (IL-1α; concentration 20 μM): 27%
inhibition at 50 µM (IL-1α): 79%

CCNC(=O)[C@H](Cc1ccccc1)NCc1ccccc1O [N-(2-hydroxybenzyl)-L-phenylalanine ethyl amide]
inhibition at 500 µM (NF-κB; concentration 0.5 mM): 102%
inhibition at 1000 µM (NF-κB): 47%
inhibition at 100 µM (collagenase): 32%
inhibition at 500 µM (collagenase): 27%
inhibition at 500 µM (AP-1): 34%
inhibition at 1000 µM (AP-1): 61%

CCCCCCCCCCCCNC(=O)[C@@H]1CCC(=O)N1Cc1ccccc1O [N-(2-hydroxybenzyl)-L-pyroglutamic acid lauryl amide]
inhibition at 50 µM (NF-κB): 75%
inhibition at 100 µM (NF-κB): 74%
inhibition at 10 µM (collagenase): 23%
inhibition at 50 µM (collagenase; concentration 50 μM): 52%
inhibition at 10 µM (IL-1α): 25%
inhibition at 50 µM (IL-1α): 28%
inhibition at 100 µM (AP-1; concentration 100 μM): 42%

CCOC(=O)[C@H](CO)NCc1ccccc1O [N-(2-hydroxybenzyl)-L-serine ethyl ester]
inhibition at 1000 µM (NF-κB): 37%
inhibition at 2000 µM (NF-κB): 56%
inhibition at 500 µM (collagenase): 30%
inhibition at 2000 µM (IL-1α; concentration 2 mM): 44%
inhibition at 1000 µM (AP-1): 73%

CCCCCCCCCCCCNC(=O)[C@H](Cc1ccc(O)cc1)NCc1ccccc1O [N-(2-hydroxybenzyl)-L-tyrosine lauryl amide]
inhibition at 10 µM (NF-κB): 39%
inhibition at 1 µM (collagenase): 42%
inhibition at 10 µM (collagenase): 84%
inhibition at 10 µM (IL-1α): 56%
inhibition at 10 µM (AP-1): 40%
inhibition at 20 µM (AP-1): 55%

CCCCCCCCCCCCOC(=O)[C@H](Cc1ccc(O)cc1)NCc1ccccc1O [N-(2-hydroxybenzyl)-L-tyrosine lauryl ester]
inhibition at 5 µM (NF-κB; concentration 5 μM): 20%
inhibition at 10 µM (NF-κB): 43%
inhibition at 10 µM (collagenase): 61%
inhibition at 1 µM (AP-1): 19%
inhibition at 10 µM (AP-1): 45%

CC(=O)Oc1ccccc1C(=O)O [aspirin, reference compound]
inhibition at 1000 µM (collagenase): -197%
inhibition at 1000 µM (AP-1): -4%
inhibition at 5000 µM (AP-1; concentration 5 mM): 14%

C[C@@H]1C[C@H]2[C@@H]3CCC4=CC(=O)C=C[C@]4(C)[C@@]3(F)[C@@H](O)C[C@]2(C)[C@@]1(O)C(=O)CO [dexamethasone, reference compound]
inhibition at 1 µM (collagenase): 27%
inhibition at 10 µM (collagenase): 53%
inhibition at 10 µM (IL-1α): 48%
inhibition at 100 µM (IL-1α): 65%
inhibition at 1 µM (AP-1): 39%
inhibition at 10 µM (AP-1): 34%
